#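 Cells were grown in 96-well plates and exposed to each compound for 48 hours at five concentrations; endpoints were interpolated linearly between bracketing concentrations, or set to the highest concentration if not reached. GI50 = concentration required for 50% inhibition of growth.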 Calls of active or inactive are those of the source. No stated cut-off is given here; in the data, active = GI50 up to about 1.1 µM and inactive = higher.
# Key:
# Test in all cases: inhibition of tumour cell growth, NCI panel, 48 h
# 786-0 = tested on: 786-0
# A549 = tested on: A549
# ACHN = tested on: ACHN
# CAKI-1 = tested on: CAKI-1
# CCRF-CEM = tested on: CCRF-CEM
# DU-145 = tested on: DU-145
# EKVX = tested on: EKVX
# HCC 2998 = tested on: HCC 2998
# HCT-116 = tested on: HCT-116
# HCT-15 = tested on: HCT-15
# HL-60 = tested on: HL-60
# HOP-92 = tested on: HOP-92
# IGROV-1 = tested on: IGROV-1
# K562 = tested on: K562
# KM12 = tested on: KM12
# MDA-MB-435 = tested on: MDA-MB-435
# MOLT-4 = tested on: MOLT-4
# NCI-H226 = tested on: NCI-H226
# NCI-H23 = tested on: NCI-H23
# NCI-H460 = tested on: NCI-H460
# NCI/ADR-RES = tested on: NCI/ADR-RES
# OVCAR-8 = tested on: OVCAR-8
# PC-3 = tested on: PC-3
# RPMI-8226 = tested on: RPMI-8226
# RXF 393 = tested on: RXF 393
# SF-539 = tested on: SF-539
# SK-MEL-28 = tested on: SK-MEL-28
# SK-MEL-2 = tested on: SK-MEL-2
# SNB-19 = tested on: SNB-19
# SNB-75 = tested on: SNB-75
# SR = tested on: SR
# SW-620 = tested on: SW-620
# TK-10 = tested on: TK-10
# U-251 = tested on: U-251
# UACC-257 = tested on: UACC-257
# UO-31 = tested on: UO-31
# A498 = tested on: A498
# BT-549 = tested on: BT-549
# COLO 205 = tested on: COLO 205
# HOP-62 = tested on: HOP-62
# HT-29 = tested on: HT-29
# LOX IMVI = tested on: LOX IMVI
# M14 = tested on: M14
# MCF7 = tested on: MCF7
# MDA-MB-231 = tested on: MDA-MB-231
# MDA-N = tested on: MDA-N
# Malme-3M = tested on: Malme-3M
# OVCAR-3 = tested on: OVCAR-3
# OVCAR-4 = tested on: OVCAR-4
# OVCAR-5 = tested on: OVCAR-5
# SF-268 = tested on: SF-268
# SF-295 = tested on: SF-295
# SK-MEL-5 = tested on: SK-MEL-5
# SN12C = tested on: SN12C
# NCI-H522 = tested on: NCI-H522
# SK-OV-3 = tested on: SK-OV-3
# UACC-62 = tested on: UACC-62
compound,measurement,setting,value
C(=C\c1ccc(-c2cn3cc(/C=C/C=N/NC4=NCCN4)ccc3n2)cc1)/C=N/NC1=NCCN1,GI50,786-0,1.32 µM (inactive)
same,GI50,A549,0.294 µM (active)
same,GI50,ACHN,1.36 µM (inactive)
same,GI50,CAKI-1,1.3 µM (inactive)
same,GI50,CCRF-CEM,1.66 µM (inactive)
same,GI50,DU-145,2 µM (inactive)
same,GI50,EKVX,1.6 µM (inactive)
same,GI50,HCC 2998,1.19 µM (inactive)
same,GI50,HCT-116,0.589 µM (active)
same,GI50,HCT-15,3.72 µM
same,GI50,HL-60,0.368 µM (active)
same,GI50,HOP-92,1.14 µM (inactive)
same,GI50,IGROV-1,2.05 µM (inactive)
same,GI50,K562,0.461 µM (active)
same,GI50,KM12,2 µM (inactive)
same,GI50,MDA-MB-435,1.29 µM (inactive)
same,GI50,MOLT-4,2.07 µM (inactive)
same,GI50,NCI-H226,1.5 µM (inactive)
same,GI50,NCI-H23,1.72 µM (inactive)
same,GI50,NCI-H460,0.514 µM (active)
same,GI50,NCI/ADR-RES,> 25.8 µM (inactive)
same,GI50,OVCAR-8,1.27 µM (inactive)
same,GI50,PC-3,1.47 µM (inactive)
same,GI50,RPMI-8226,0.0427 µM (active)
same,GI50,RXF 393,1.51 µM (inactive)
same,GI50,SF-539,1.57 µM (inactive)
same,GI50,SK-MEL-28,1.84 µM (inactive)
same,GI50,SK-MEL-2,1.35 µM (inactive)
same,GI50,SNB-19,1.27 µM (inactive)
same,GI50,SNB-75,1.31 µM (inactive)
same,GI50,SR,1.04 µM (active)
same,GI50,SW-620,0.083 µM (active)
same,GI50,TK-10,5.08 µM (inactive)
same,GI50,U-251,0.399 µM (active)
same,GI50,UACC-257,0.887 µM (active)
same,GI50,UO-31,3.09 µM (inactive)
CCOC(=O)C(NC(=O)C(CCCCNP(=O)(OCC)OCC)NC(=O)C(C)NC(C)=O)C(C)C (configuration not stated),GI50,786-0,> 100 µM (inactive)
same,GI50,A498,80.7 µM (inactive)
same,GI50,A549,> 100 µM (inactive)
same,GI50,ACHN,> 100 µM (inactive)
same,GI50,BT-549,> 100 µM (inactive)
same,GI50,CAKI-1,> 100 µM (inactive)
same,GI50,CCRF-CEM,> 100 µM (inactive)
same,GI50,COLO 205,> 100 µM (inactive)
same,GI50,DU-145,> 100 µM (inactive)
same,GI50,EKVX,> 100 µM (inactive)
same,GI50,HCC 2998,> 100 µM (inactive)
same,GI50,HCT-116,> 100 µM (inactive)
same,GI50,HCT-15,> 100 µM
same,GI50,HL-60,> 100 µM (inactive)
same,GI50,HOP-62,> 100 µM (inactive)
same,GI50,HOP-92,> 100 µM (inactive)
same,GI50,HT-29,> 100 µM (inactive)
same,GI50,IGROV-1,> 100 µM (inactive)
same,GI50,K562,> 100 µM (inactive)
same,GI50,KM12,> 100 µM (inactive)
same,GI50,LOX IMVI,> 100 µM (inactive)
same,GI50,M14,> 100 µM (inactive)
same,GI50,MCF7,> 100 µM (inactive)
same,GI50,MDA-MB-231,> 100 µM (inactive)
same,GI50,MDA-MB-435,> 100 µM (inactive)
same,GI50,MDA-N,> 100 µM (inactive)
same,GI50,MOLT-4,> 100 µM (inactive)
same,GI50,Malme-3M,> 100 µM (inactive)
same,GI50,NCI-H226,> 100 µM (inactive)
same,GI50,NCI-H23,> 100 µM (inactive)
same,GI50,NCI-H460,> 100 µM (inactive)
same,GI50,NCI/ADR-RES,> 100 µM (inactive)
same,GI50,OVCAR-3,> 100 µM (inactive)
same,GI50,OVCAR-4,> 100 µM (inactive)
same,GI50,OVCAR-5,> 100 µM (inactive)
same,GI50,OVCAR-8,> 100 µM (inactive)
same,GI50,PC-3,> 100 µM (inactive)
same,GI50,RPMI-8226,> 100 µM (inactive)
same,GI50,RXF 393,> 100 µM (inactive)
same,GI50,SF-268,> 100 µM (inactive)
same,GI50,SF-295,> 100 µM (inactive)
same,GI50,SF-539,> 100 µM (inactive)
same,GI50,SK-MEL-28,> 100 µM (inactive)
same,GI50,SK-MEL-2,> 100 µM (inactive)
same,GI50,SK-MEL-5,> 100 µM (inactive)
same,GI50,SN12C,> 100 µM (inactive)
same,GI50,SNB-19,> 100 µM (inactive)
same,GI50,SNB-75,> 100 µM (inactive)
same,GI50,SR,> 100 µM (inactive)
same,GI50,SW-620,> 100 µM (inactive)
same,GI50,TK-10,> 100 µM (inactive)
same,GI50,U-251,> 100 µM (inactive)
same,GI50,UACC-257,> 100 µM (inactive)
same,GI50,UO-31,> 100 µM (inactive)
C=C1c2nc3ccccc3n2C=C(c2ccccc2)N1c1ccc(C)cc1,GI50,786-0,45.3 µM (inactive)
same,GI50,A498,52.7 µM (inactive)
same,GI50,A549,> 100 µM (inactive)
same,GI50,ACHN,53.5 µM (inactive)
same,GI50,BT-549,49.9 µM (inactive)
same,GI50,CAKI-1,32.8 µM (inactive)
same,GI50,CCRF-CEM,55.6 µM (inactive)
same,GI50,COLO 205,73.5 µM (inactive)
same,GI50,DU-145,> 100 µM (inactive)
same,GI50,EKVX,> 100 µM (inactive)
same,GI50,HCC 2998,9.31 µM (inactive)
same,GI50,HCT-116,36.9 µM (inactive)
same,GI50,HCT-15,35.4 µM
same,GI50,HOP-92,41.4 µM (inactive)
same,GI50,IGROV-1,> 100 µM (inactive)
same,GI50,K562,31.5 µM (inactive)
same,GI50,KM12,22.7 µM (inactive)
same,GI50,LOX IMVI,33.6 µM (inactive)
same,GI50,M14,> 100 µM (inactive)
same,GI50,MCF7,29.5 µM (inactive)
same,GI50,MDA-MB-231,> 100 µM (inactive)
same,GI50,MDA-MB-435,33.2 µM (inactive)
same,GI50,MOLT-4,20.6 µM (inactive)
same,GI50,Malme-3M,> 100 µM (inactive)
same,GI50,NCI-H226,68.7 µM (inactive)
same,GI50,NCI-H23,58.6 µM (inactive)
same,GI50,NCI-H460,56.6 µM (inactive)
same,GI50,NCI-H522,35.1 µM (inactive)
same,GI50,NCI/ADR-RES,37.7 µM (inactive)
same,GI50,OVCAR-3,75 µM (inactive)
same,GI50,OVCAR-4,71.8 µM (inactive)
same,GI50,OVCAR-5,> 100 µM (inactive)
same,GI50,OVCAR-8,48.5 µM (inactive)
same,GI50,PC-3,50.4 µM (inactive)
same,GI50,RPMI-8226,19.5 µM (inactive)
same,GI50,RXF 393,59.6 µM (inactive)
same,GI50,SF-295,> 100 µM (inactive)
same,GI50,SF-539,63.8 µM (inactive)
same,GI50,SK-MEL-2,> 100 µM (inactive)
same,GI50,SK-MEL-5,25.7 µM (inactive)
same,GI50,SK-OV-3,> 100 µM (inactive)
same,GI50,SN12C,85.5 µM (inactive)
same,GI50,SNB-19,> 100 µM (inactive)
same,GI50,SNB-75,> 100 µM (inactive)
same,GI50,SR,10.3 µM (inactive)
same,GI50,SW-620,71.1 µM (inactive)
same,GI50,TK-10,79.3 µM (inactive)
same,GI50,U-251,88.1 µM (inactive)
same,GI50,UACC-257,80.4 µM (inactive)
same,GI50,UACC-62,64.4 µM (inactive)
same,GI50,UO-31,36.1 µM (inactive)
COc1cc(Nc2nc3cc(N)cc(N)c3nc2-c2ccccc2)cc(OC)c1OC,GI50,HT-29,16.6 µM (inactive)

# Source: ChEMBL document CHEMBL1201862, “PubChem BioAssay data set” (2004)
